# In patent publication US20190337932A1, “PROCESS FOR PREPARATION OF DACLATASVIR AND SALTS” (Gienmark Pharmaceuticals Limited, priority 2016, published 2019):
# Where a name gives a salt, the structure may show the parent alone.
# Legend:
# Assay type in all cases: physicochemical
# [1] = Physical stability on storing/drying at 50° C., 70° C., 100° C. (XRPD, Karl-Fisher)
# Procedure: The physical stability of the daclatasvir dihydrochloride hydrate, of the present invention was determined by storing approximately 3.0 g of the sample a) at 50° C. b) at 70° C. c) at 100° C. The samples were tested by XRPD and Karl-Fisher titrator after 15 hours and 72 hours.
# [2] = Transformation kinetics: slurrying in water at 25 to 30° C. for 24 hours, XRPD
# Procedure: The study was carried out by slurrying 1 g of daclatasvir dihydrochloride hydrate of the present invention and literature Form N-2 of daclatasvir dihydrochloride, in water at 25 to 30° C. for 24 hours. The solid samples were then characterized by XRPD.
# [3] = Hygroscopicity at 25° C/60% and 40° C/75% relative humidity (description, water content by Karl Fischer); conditions: for hygroscopicity: conclusion of the study, Tables 4 and 5
# Procedure: The study was carried out by subjecting 4 g of daclatasvir dihydrochloride hydrate of the present invention and literature Form N-2 of daclatasvir dihydrochloride to 25′C/60% relative humidity and 40′C/75% relative humidity. About 100 mg of sample was withdrawn each time at timely interval of 4, 12, 24 and 48 hours from the conditions is and tested for description and water content by Karl Fischer.
# [4] = Solid state stability at accelerated stress conditions (40° C./75% relative humidity); conditions: 40° C./75% RH
# Procedure: In one embodiment the present invention provides daclatasvir dihydrochloride hydrate, which has enhanced stability to heat and humidity. According to the present invention, the obtained daclatasvir dihydrochloride hydrate is subjected to accelerated stability at 40° C. and relative humidity (RH) 75%.
# The solid state stability of the daclatasvir dihydrochloride hydrate was determined by storing approximately 3.0 g of the sample at accelerated stress conditions (40° C./75% relative humidity) for 15 days, 1 month, 3 months, 6 months. The samples were tested by XRPD and HPLC for final purity and degradation products.
# [5] = Dynamic vapor system sorption/desorption isotherms; conditions: 25° C., relative humidity of 40% to 90%
# Procedure: Sorption/desorption isotherms were measured using the Dynamic vapor System. Measurement was carried out at 25° C. and Relative humidity of 40% to 90%.
# [6] = Photostability, light of 4000 lux at 25° C. for 2 weeks
# Procedure: This study was carried out in a photostability testing chamber by subjecting daclatasvir dihydrochloride hydrate of the present invention to irradiation with light of 4000 lux at 25° C. for 2 weeks and the samples were tested for XRPD and stability.
# [7] = listed as literature form N-2, dihydrochloride
compound,measurement,setting,value
COC(=O)N[C@H](C(=O)N1CCC[C@H]1c1ncc(-c2ccc(-c3ccc(-c4cnc([C@@H]5CCCN5C(=O)[C@@H](NC(=O)OC)C(C)C)[nH]4)cc3)cc2)[nH]1)C(C)C [daclatasvir dihydrochloride hydrate],KF,[1]; Drying at 50° C. for 15 hours,8.03%
same,KF,[1]; Drying at 50° C. for 72 hours,8.12%
same,Key XRPD peaks after drying,"[1]; Drying at 50° C., 70° C. (15 and 72 hours) and 100° C. (15 hours), one merged cell",There was no change in XRPD
same,KF,[1]; Drying at 70° C. for 15 hours,8.03%
same,KF,[1]; Drying at 70° C. for 72 hours,8.02%
same,KF,[1]; Drying at 100° C. for 15 hours,8%
same,KF,[1]; Initial form,7.99%
same,change in form,[1]; drying and humid conditions,no change in form
same,Result (form by XRPD),[2]; dihydrochloride hydrate,No discernible form conversion or dissociation
same,Description,"[3]; 25° C./60% relative humidity, 4 hours",Creamish
same,Moisture content by KF,"[3]; 25° C./60% relative humidity, 4 hours, dihydrochloride hydrate",8.77%
same,Description,"[3]; 25° C./60% relative humidity, 12 hours",Creamish
same,Moisture content by KF,"[3]; 25° C./60% relative humidity, 12 hours, dihydrochloride hydrate",8.86%
same,Description,"[3]; 25° C./60% relative humidity, 24 hours",Creamish
same,Moisture content by KF,"[3]; 25° C./60% relative humidity, 24 hours, dihydrochloride hydrate",8.89%
same,Description,"[3]; 25° C./60% relative humidity, 48 hours",Creamish
same,Moisture content by KF,"[3]; 25° C./60% relative humidity, 48 hours, dihydrochloride hydrate",8.91%
same,Description,"[3]; 25° C./60% relative humidity, Initial",Creamish
same,Moisture content by KF,"[3]; 25° C./60% relative humidity, Initial, dihydrochloride hydrate",8.76%
same,Description,"[3]; 40° C./75% relative humidity, 4 hours",Creamish
same,Moisture content by KF,"[3]; 40° C./75% relative humidity, 4 hours, dihydrochloride hydrate",8.76%
same,Description,"[3]; 40° C./75% relative humidity, 12 hours",Creamish
same,Moisture content by KF,"[3]; 40° C./75% relative humidity, 12 hours, dihydrochloride hydrate",8.81%
same,Description,"[3]; 40° C./75% relative humidity, 24 hours",Creamish
same,Moisture content by KF,"[3]; 40° C./75% relative humidity, 24 hours, dihydrochloride hydrate",8.86%
same,Description,"[3]; 40° C./75% relative humidity, 48 hours",Creamish
same,Moisture content by KF,"[3]; 40° C./75% relative humidity, 48 hours, dihydrochloride hydrate",8.92%
same,Description,"[3]; 40° C./75% relative humidity, Initial",Creamish
same,Moisture content by KF,"[3]; 40° C./75% relative humidity, Initial, dihydrochloride hydrate",8.76%
same,hygroscopicity,[3]; dihydrochloride hydrate,non-hygroscopic
same,HPLC Purity (%),[4]; after 1 month,99.9%
same,XRPD,[4]; after 1 month,Same as initial
same,HPLC Purity (%),[4]; after 3 months,99.89%
same,XRPD,[4]; after 3 months,Same as initial
same,HPLC Purity (%),[4]; after 6 months,99.88%
same,XRPD,[4]; after 6 months,Same as initial
same,HPLC Purity (%),[4]; after 15 days,99.9%
same,XRPD,[4]; after 15 days,Same as initial
same,chemical and physical stability,[4]; accelerated stability,chemically and physically very stable
same,degradation in HPLC,[4]; accelerated stability,no degradation
same,increase in the moisture content,[4]; accelerated stability,no substantial increase
same,XRPD pattern,"[4]; accelerated stability, dihydrochloride hydrate",remains the same as initial
same,Adsorption desorption profile,[5],reversible
same,XRPD pattern,[6],remains same as initial
same,degradation in HPLC,[6],no degradation
"COC(=O)N[C@H](C(=O)N1CCC[C@H]1c1ncc(-c2ccc(-c3ccc(-c4cnc([C@@H]5CCCN5C(=O)[C@@H](NC(=O)OC)C(C)C)[nH]4)cc3)cc2)[nH]1)C(C)C [daclatasvir dihydrochloride, reference compound]",Result (form by XRPD),"[2]; listed as Form-N2, dihydrochloride",Converted to crystalline daclatasvir
same,Result (form by XRPD),[2]; [7],did not retain its form and was converted to the daclatasvir dihydrochloride hydrate of the present invention
same,Moisture content by KF,"[3]; 25° C./60% relative humidity, 4 hours, dihydrochloride",2.45%
same,Moisture content by KF,"[3]; 25° C./60% relative humidity, 12 hours, dihydrochloride",2.47%
same,Moisture content by KF,"[3]; 25° C./60% relative humidity, 24 hours, dihydrochloride",2.44%
same,Moisture content by KF,"[3]; 25° C./60% relative humidity, 48 hours, dihydrochloride",2.47%
same,Moisture content by KF,"[3]; 25° C./60% relative humidity, Initial, dihydrochloride",2.12%
same,Moisture content by KF,"[3]; 40° C./75% relative humidity, 4 hours, dihydrochloride",2.52%
same,Moisture content by KF,"[3]; 40° C./75% relative humidity, 12 hours, dihydrochloride",2.54%
same,Moisture content by KF,"[3]; 40° C./75% relative humidity, 24 hours, dihydrochloride",2.65%
same,Moisture content by KF,"[3]; 40° C./75% relative humidity, 48 hours, dihydrochloride",2.77%
same,Moisture content by KF,"[3]; 40° C./75% relative humidity, Initial, dihydrochloride",2.12%
same,hygroscopicity,[3]; [7],more hygroscopic than the form of the present invention
